Test results as given in article PMC11122761, “Synthetic ShK-like Peptide from the Jellyfish Nemopilema nomurai Has Human Voltage-Gated Potassium-Channel-Blocking Activity” (Marine Drugs, 2024).
Entries after “also recorded” stand apart in the source; their conditions may differ. Where no end group is shown, it is not given here.

Assays:
hKv1.3 = experiment: Whole-cell patch-clamp current recording, hKv1.3; type: cell-based, human; settings: for hKv1.3 IV curve, p vs. 0 nM: IV curves −130 to 50 mV (Figure 3), two-way ANOVA; for hKv1.3 IV curve, p vs. 0 nM / reduction of hKv1.3 current amplitude at 50 mV, p vs. 0 nM: Dunnett's post hoc; for reduction of hKv1.3 current amplitude at 50 mV, p vs. 0 nM: one-way ANOVA; for current of hKv1.3 (current amplitude), effect of treatment / inhibition of the current amplitudes of hKv1.3 by NnK-1 analogs: 0.01, 1, 100, or 500 nM; for current of hKv1.3 (current amplitude), effect of treatment: HEK293 cells expressing hKv1.3, bath-applied for 2 min, whole-cell, holding potential –70 mV; for hKv1.3 IV curves, two-way ANOVA group effect p: group effect, 0, 0.01, 1, 100, or 500 nM, Figure 3 IV curves; for hKv1.3 current amplitude at 50 mV, one-way ANOVA p: overall, 0, 0.01, 1, 100, or 500 nM; for inhibition of the current amplitudes of hKv1.3 by NnK-1 analogs: Figure 6
Procedure: (§1) The amplification was performed in the Veriti™ 96-Well Fast Thermal Cycler (Applied Biosystems, Waltham, MA, USA) with a thermal cycling program consisting of predenaturation for 3 min at 95 °C, followed by 30 cycles of denaturation for 30 s at 95 °C, annealing for 30 s at 58 °C, and extension for 30 s at 72 °C, with a final extension for 3 min at 72 °C. A Human cDNA Clone Set (OriGene Technologies GmbH, Herford, Germany) was used as the template. A MCS (multi-cloning site) digested from the pAAV-MCS vector (Cell Biolabs, San Diego, CA, USA) was ligated into the pIRES2-EGFP vector (Clontech Laboratories, Mountain View, CA, USA) to form pAAV–CMV–IRES2–EGFP. The PCR products were ligated into the pAAV–CMV–IRES2–EGFP vector at the NheI and SalI sites to construct pAAV–CMV–hKv–IRES2–EGFP.
(§2) The HEK293 cells were transfected with pAAV–CMV–hKv–IRES2–EGFP (2 μg) using Effectene Transfection Reagent (Qiagen, Hilden, Germany) for 12–18 h. The transfectants (1 × 10^5/mL) were seeded onto 12 mm coverslips coated with 0.01 mg/mL poly-D-lysine for 2–3 h.
The HEK293 cells expressing AAV–CMV–hKv–IRES2–EGFP were reseeded onto coverslips. The HEK293 transfectants were monitored for their green fluorescence and used as patch cells. Patch pipettes were filled with an internal solution (140 mM potassium gluconate, 10 mM HEPES, 0.2 mM ATP, and 0.06 mM GTP). An external solution [130 mM NaCl, 10 mM HEPES, 3 mM KCl, 1.5 mM D-glucose, 10 mM sucrose, […], 1.5 mM MgCl2·6H2O, osmolarity 320 mmol/kg (pH 7.2)] was used as the basic buffer. Psora4, ShK, or NnK-1 (0, 0.01, 1, 100, or 500 nM) was bath-applied for 2 min to block the currents recorded from the HEK293 cells expressing AAV–CMV–hKv–IRES2–EGFP with voltages ranging from −130 to 50 mV in the increments of 20 mV and 0.6 s. Whole-cell patch recordings from […] under voltage-clamp conditions (holding potential of –70 mV) were made with the Multiclamp 700 B microelectrode amplifier (Automate Scientific Inc., Berkeley, CA, USA) digitized with a Digidata 1322 A data acquisition system (Molecular Devices Limited, San Jose, CA, USA). In this study, all electrophysiological data from the cultured cells were obtained at a temperature of 23–25 °C and maintained with the CL-100 Temperature Controller (Warner Instruments LLC, Hamden, CT, USA).

[1] = tested on: hKv1.3-transfected HEK293 cells; experiment: Cell viability assay (CCK-8), hKv1.3-transfected HEK293 cells; type: cell-based; settings: 1 h treatment, 0.01, 1, 100, and 500 nM; CCK-8, absorbance 450 nm
Procedure: as §2
(§3) The cell viability of the HEK293 cells was assessed with a Cell Counting Kit-8 (CCK-8, DJDB4000X, Dojindo laboratory, Kumanoto, Japan). Both the HEK293 cells and HEK293 cells expressing AAV–CMV–hKv–IRES2–EGFP were seeded onto a 96-well plate (1 × 10^4 cells/well). After 24 h of incubation, ShK, NnK-1, NnK-1 mu, and NnK-1 w/o d (0, 0.01, 1, 100, or 500 nM) were used to treat the cells in each well for 1 h. After that, a dye solution was used to treat the cells for 2 h, and the absorbance was measured at 450 nm using a microplate reader (GloMax explorer multimode, Promega, Madison, WI, USA).

[2] = tested on: untransfected HEK293 cells; experiment: Cell viability assay (CCK-8), untransfected HEK293 cells; type: cell-based; settings: 1 h treatment, 0.01, 1, 100, and 500 nM; CCK-8, absorbance 450 nm
Procedure: as §3

hKv11.1 = experiment: Whole-cell patch-clamp current recording, hKv11.1; type: cell-based, human; settings: 100 nM NnK-1; Figure 4F; HEK293, bath-applied 2 min, 23–25 °C
Procedure: as §1
(§4) The HEK293 cells were transfected with pAAV–CMV–hKv–IRES2–EGFP (2 μg) using Effectene Transfection Reagent (Qiagen, Hilden, Germany) for 12–18 h. […]
(§5) The HEK293 cells expressing AAV–CMV–hKv–IRES2–EGFP were reseeded onto coverslips. The HEK293 transfectants were monitored for their green fluorescence and used as patch cells. […] Psora4, ShK, or NnK-1 (0, 0.01, 1, 100, or 500 nM) was bath-applied for 2 min to block the currents recorded from the HEK293 cells expressing AAV–CMV–hKv–IRES2–EGFP with voltages ranging from −130 to 50 mV in the increments of 20 mV and 0.6 s. […]

[3] = Maintenance of disulfide bonds of synthetic NnK-1 in solution; type: physicochemical; settings: dissolved in a solution; inferred from comparison with NnK-1 w/o d on hKv1.3
Excerpt: Another peptide, NnK-1 w/o d, which had the same amino acid residues but without three pairs of disulfide bonds, was also synthesized to test whether the disulfide bonds were still intact in the synthetic NnK-1 after being dissolved in a solution.

hKv1.1 = experiment: Whole-cell patch-clamp current recording, hKv1.1; type: cell-based, human; settings: HEK293, bath-applied 2 min
Procedure: as §1, §4, §5

hKv1.4 = experiment: Whole-cell patch-clamp current recording, hKv1.4; type: cell-based, human
Procedure: as §1, §2
(§6) The HEK293 cells expressing AAV–CMV–hKv–IRES2–EGFP were reseeded onto coverslips. The HEK293 transfectants were monitored for their green fluorescence and used as patch cells. Patch pipettes were filled with an internal solution (140 mM potassium gluconate, 10 mM HEPES, 0.2 mM ATP, and 0.06 mM GTP). An external solution [130 mM NaCl, 10 mM HEPES, 3 mM KCl, 1.5 mM D-glucose, 10 mM sucrose, […], 1.5 mM MgCl2·6H2O, osmolarity 320 mmol/kg (pH 7.2)] was used as the basic buffer. Psora4, ShK, or NnK-1 (0, 0.01, 1, 100, or 500 nM) was bath-applied for 2 min to block the currents recorded from the HEK293 cells expressing AAV–CMV–hKv–IRES2–EGFP with voltages ranging from −130 to 50 mV in the increments of 20 mV and 0.6 s. […]

hKv3.1 = experiment: Whole-cell patch-clamp current recording, hKv3.1; type: cell-based, human; settings: 100 nM NnK-1; Figure 4E; HEK293, bath-applied 2 min, 23–25 °C
Procedure: as §1, §4, §5

hKv1.5 = experiment: Whole-cell patch-clamp current recording, hKv1.5; type: cell-based, human
Procedure: as §1, §2, §6

[4] = 0.01 nM, HEK293, bath-applied 2 min, pH 7.2, 23–25 °C
[5] = 1 nM, HEK293, bath-applied 2 min, pH 7.2, 23–25 °C
[6] = 1 nM, bar graph at 50 mV (Figure 3), HEK293, bath-applied 2 min, pH 7.2, 23–25 °C
[7] = 100 nM, HEK293, bath-applied 2 min, pH 7.2, 23–25 °C
[8] = 100 nM, bar graph at 50 mV (Figure 3), HEK293, bath-applied 2 min, pH 7.2, 23–25 °C
[9] = 500 nM, HEK293, bath-applied 2 min, pH 7.2, 23–25 °C
[10] = 500 nM, bar graph at 50 mV (Figure 3), HEK293, bath-applied 2 min, pH 7.2, 23–25 °C
[11] = 100 nM, HEK293, bath-applied 2 min, 23–25 °C (Figure 4)
[12] = electrophysiological assay, summary statement
[13] = HEK293, bath-applied 2 min, 23–25 °C

| Compound | hKv1.3 IV curve, p vs. 0 nM (hKv1.3; [4]) | hKv1.3 IV curve, p vs. 0 nM (hKv1.3; [5]) | reduction of hKv1.3 current amplitude at 50 mV, p vs. 0 nM (hKv1.3; [6]) | hKv1.3 IV curve, p vs. 0 nM (hKv1.3; [7]) | reduction of hKv1.3 current amplitude at 50 mV, p vs. 0 nM (hKv1.3; [8]) | hKv1.3 IV curve, p vs. 0 nM (hKv1.3; [9]) | reduction of hKv1.3 current amplitude at 50 mV, p vs. 0 nM (hKv1.3; [10]) | current of hKv1.3 (current amplitude), effect of treatment (hKv1.3; pH 7.2, 23–25 °C) | hKv1.3 IV curves, two-way ANOVA group effect p (hKv1.3) | hKv1.3 current amplitude at 50 mV, one-way ANOVA p (hKv1.3; Figure 3 bar graphs) | hKv1.3 current amplitude at 50 mV, one-way ANOVA p (hKv1.3; Figure 6 bar graphs) | inhibition of the current amplitudes of hKv1.3 by NnK-1 analogs (hKv1.3; [13]) | other results |
| --- | --- | --- | --- | --- | --- | --- | --- | --- | --- | --- | --- | --- | --- |
| O=c1ccc2c(OCCCCc3ccccc3)c3ccoc3cc2o1 [Psora4, reference compound] | < 0.05 | < 0.0001 | < 0.01 | < 0.0001 | < 0.001 | < 0.0001 | < 0.0001 | significantly reduced | < 0.0001 | < 0.0001 |  |  |  |
| CKDHHTYGVYCKDWKSSGECKKNPKGMRHFCRKTCGFC (disulfide (positions not given here)) [NnK-1, fifth ShK-like peptide of the Nemopilema nomurai NnK-1 precursor, chemically synthesized] | < 0.01 | < 0.0001 | < 0.0001 | < 0.0001 | < 0.0001 | < 0.0001 | < 0.0001 | significantly reduced | < 0.0001 | < 0.0001 | < 0.05 |  | cell viability, hKv1.3-transfected HEK293 [1]: no difference; cell viability, untransfected HEK293 [2]: no difference; reduction of hKv1.3 current amplitude at 50 mV, p vs. 0 nM (hKv1.3; 0.01 nM, bar graph at 50 mV (Figure 3), HEK293, bath-applied 2 min, pH 7.2, 23–25 °C): < 0.05; hKv1.3 IV curve, two-way ANOVA group effect p (hKv1.3; 100 nM NnK-1, Figure 4B, HEK293, bath-applied 2 min, 23–25 °C): < 0.05; reduction of hKv1.3 current amplitude at 50 mV, p vs. 0 nM (hKv1.3; 100 nM, Figure 6B, HEK293, bath-applied 2 min): < 0.05; inhibition of the current amplitude of hKv1.3 (hKv1.3; [11]): significantly inhibited; reduction of hKv1.3 current amplitude at 50 mV, p vs. 0 nM (hKv1.3; 500 nM, Figure 6B, HEK293, bath-applied 2 min): < 0.05; channel block, hKv1.3 (hKv1.3; [12]): effective blocker; also recorded: Kv1.3-blocking activity; hKv11.1 IV curve, two-way ANOVA group effect p (hKv11.1): 0.39; disulfide bonds in solution [3]: maintained even when dissolved in a solution; hKv1.1 IV curve, two-way ANOVA group effect p (hKv1.1; 100 nM NnK-1, Figure 4A, 23–25 °C): 0.52; inhibition of the current amplitude of hKv1.1 (hKv1.1; 100 nM, 23–25 °C (Figure 4)): not that of hKv1.1, hKv3.1, and hKv.11.1; hKv1.4 IV curve, two-way ANOVA group effect p (hKv1.4; 100 nM NnK-1, Figure 4C, HEK293, bath-applied 2 min, 23–25 °C): < 0.01; inhibition of the current amplitude of hKv1.4 (hKv1.4; [11]): significantly inhibited; channel block, hKv1.4 (hKv1.4; [12]): effective blocker; hKv3.1 IV curve, two-way ANOVA group effect p (hKv3.1): 0.46; hKv1.5 IV curve, two-way ANOVA group effect p (hKv1.5; 100 nM NnK-1, Figure 4D, HEK293, bath-applied 2 min, 23–25 °C): < 0.001; inhibition of the current amplitude of hKv1.5 (hKv1.5; [11]): significantly inhibited; channel block, hKv1.5 (hKv1.5; [12]): effective blocker |
| CKDHHTYGVYCKDWKSSGECKKNPKGMRHFCRKTCGFC [NnK-1 w/o d, same amino acid residues as NnK-1 but without three pairs of disulfide bonds] |  |  |  |  |  |  |  |  |  |  | 0.28 | neither NnK-1 mu nor NnK-1 w/o d inhibited the current amplitudes of hKv1.3 |  |
| CKEHHTYGVYCKDWKSSGECKKNPRGMRHFCRKMCGFC (disulfide (positions not given here)) [NnK-1 mu, NnK-1 with three amino acids substituted with 3Glu, 25Arg, and 34Met] |  |  |  |  |  |  |  |  |  |  | 0.89 | neither NnK-1 mu nor NnK-1 w/o d inhibited the current amplitudes of hKv1.3 |  |
